Experimental data: ChEMBL document CHEMBL5154842, “Unique Carbazole-Oxadiazole Derivatives as New Potential Antibiotics for Combating Gram-Positive and -Negative Bacteria” (J Med Chem, 2022)
Values after ≈ are worked out from the molar mass of the structure shown. Active and inactive are the calls of the source. No cut-off for these calls is given here.

Key:
Staphylococcus aureus [1] = assay: Antibacterial activity against methicillin-resistant Staphylococcus aureus N315 assessed as inhibition of bacterial growth incubated for 24 hrs by CLSI protocol based two fold serial dilution method; assay type: functional
Enterococcus faecalis = assay: Antibacterial activity against Enterococcus faecalis assessed as inhibition of bacterial growth incubated for 24 hrs by CLSI protocol based two fold serial dilution method; assay type: functional
Staphylococcus aureus [2] = assay: Antibacterial activity against Staphylococcus aureus assessed as inhibition of bacterial growth incubated for 24 hrs by CLSI protocol based two fold serial dilution method; assay type: functional
Staphylococcus aureus [3] = assay: Antibacterial activity against Staphylococcus aureus 25923 assessed as inhibition of bacterial growth incubated for 24 hrs by CLSI protocol based two fold serial dilution method; assay type: functional
Staphylococcus aureus [4] = assay: Antibacterial activity against Staphylococcus aureus 29213 assessed as inhibition of bacterial growth incubated for 24 hrs by CLSI protocol based two fold serial dilution method; assay type: functional
Klebsiella pneumoniae = assay: Antibacterial activity against Klebsiella pneumonia assessed as inhibition of bacterial growth incubated for 24 hrs by CLSI protocol based two fold serial dilution method; assay type: functional
Escherichia coli [5] = assay: Antibacterial activity against Escherichia coli assessed as inhibition of bacterial growth incubated for 24 hrs by CLSI protocol based two fold serial dilution method; assay type: functional
Escherichia coli [6] = assay: Antibacterial activity against Escherichia coli 25922 assessed as inhibition of bacterial growth incubated for 24 hrs by CLSI protocol based two fold serial dilution method; assay type: functional
Pseudomonas aeruginosa [7] = assay: Antibacterial activity against Pseudomonas aeruginosa assessed as inhibition of bacterial growth incubated for 24 hrs by CLSI protocol based two fold serial dilution method; assay type: functional
Pseudomonas aeruginosa [8] = assay: Antibacterial activity against Pseudomonas aeruginosa ATCC 27853 assessed as inhibition of bacterial growth incubated for 24 hrs by CLSI protocol based two fold serial dilution method; assay type: functional
Acinetobacter baumannii = assay: Antibacterial activity against Acinetobacter baumannii assessed as inhibition of bacterial growth incubated for 24 hrs by CLSI protocol based two fold serial dilution method; assay type: functional
Staphylococcus aureus [9] = assay: Antibacterial activity against methicillin-resistant Staphylococcus aureus N315 assessed as change in susceptibility at sub-MIC treated over 9 serial passages measured after 9 days by resistance development assay; assay type: functional, organism-based; conditions: time 9.0 day
Staphylococcus aureus [10] = assay: Antibacterial activity against methicillin-resistant Staphylococcus aureus N315 assessed as inhibition of bacterial growth at 0.5 to 16 ug/ml measured after 24 hrs by microplate reader assay; assay type: functional, organism-based; conditions: dose 0.5-16 µg/ml
[11] = Hemolytic activity in human RBC assessed as hemolysis at 1 to 32 ug/ml measured after 60 mins by microplate reader assay relative to control; assay type: toxicity, cell-based, Erythrocyte; conditions: red blood cells (erythrocytes), at 1 to 32 µg/mL, dose 1-32 µg/ml, read-out: Activity
Staphylococcus aureus [12] = assay: Antibacterial activity against methicillin-resistant Staphylococcus aureus N315 assessed as inhibition of bacterial growth at 0.25 to 64 ug/ml incubated for 24 hrs by Alamar blue assay; assay type: functional, organism-based; conditions: dose 0.25-64 µg/ml

Row | Compound | MIC (Staphylococcus aureus [1]) [µg/mL] | MIC (Enterococcus faecalis) [µg/mL] | MIC (Staphylococcus aureus [2]) [µg/mL] | MIC (Staphylococcus aureus [3]) [µg/mL] | MIC (Staphylococcus aureus [4]) [µg/mL] | MIC (Klebsiella pneumoniae) [µg/mL] | MIC (Escherichia coli [5]) [µg/mL] | MIC (Escherichia coli [6]) [µg/mL] | MIC (Pseudomonas aeruginosa [7]) [µg/mL] | MIC (Pseudomonas aeruginosa [8]) [µg/mL] | MIC (Acinetobacter baumannii) [µg/mL] | Activity (Staphylococcus aureus [9]) | Activity (Staphylococcus aureus [10]) | hemolysis at 1 h [11] [%] | Activity (Staphylococcus aureus [12])
1 | CCCOc1cccc2c1c1ccccc1n2Cc1nnc(S)o1 | 2 (≈ 5.89 µM) | 2 (≈ 5.89 µM) | 128 (≈ 377 µM) | 2 (≈ 5.89 µM) | 4 (≈ 11.8 µM) | 4 (≈ 11.8 µM) | 4 (≈ 11.8 µM) | 1 (≈ 2.95 µM) | 256 (≈ 754 µM) | 4 (≈ 11.8 µM) | 0.25 (≈ 0.737 µM) |  |  |  | 
2 | Sc1nnc(Cn2c3ccccc3c3c(OCC4CCCC4)cccc32)o1 | 2 (≈ 5.27 µM) | 1 (≈ 2.64 µM) | 256 (≈ 675 µM) | 4 (≈ 10.5 µM) | 0.25 (≈ 0.659 µM) | 4 (≈ 10.5 µM) | 4 (≈ 10.5 µM) | 1 (≈ 2.64 µM) | 256 (≈ 675 µM) | 4 (≈ 10.5 µM) | 2 (≈ 5.27 µM) | Active | Active | < 3 | Active
3 | CN[C@H](CC(C)C)C(=O)N[C@H]1C(=O)N[C@@H](CC(N)=O)C(=O)N[C@H]2C(=O)N[C@H]3C(=O)N[C@H](C(=O)N[C@H](C(=O)O)c4cc(O)cc(O)c4-c4cc3ccc4O)[C@H](O)c3ccc(c(Cl)c3)Oc3cc2cc(c3O[C@@H]2O[C@H](CO)[C@@H](O)[C@H](O)[C@H]2O[C@H]2C[C@](C)(N)[C@H](O)[C@H](C)O2)Oc2ccc(cc2Cl)[C@H]1O [VANCOMYCIN] |  | 2 (≈ 1.38 µM) |  |  |  |  |  |  |  |  |  |  |  |  | 
4 | CCCCCOc1cccc2c1c1ccccc1n2Cc1nnc(S)o1 | 256 (≈ 697 µM) | 256 (≈ 697 µM) | 256 (≈ 697 µM) | 256 (≈ 697 µM) | 256 (≈ 697 µM) | 256 (≈ 697 µM) | 256 (≈ 697 µM) | 256 (≈ 697 µM) | 256 (≈ 697 µM) | 256 (≈ 697 µM) | 128 (≈ 348 µM) |  |  |  | 
5 | CCCCCCOc1cccc2c1c1ccccc1n2Cc1nnc(S)o1 | 256 (≈ 671 µM) | 256 (≈ 671 µM) | 256 (≈ 671 µM) | 256 (≈ 671 µM) | 1 (≈ 2.62 µM) | 256 (≈ 671 µM) | 8 (≈ 21 µM) | 4 (≈ 10.5 µM) | 256 (≈ 671 µM) | 256 (≈ 671 µM) | 256 (≈ 671 µM) |  |  |  | 
6 | C=CCSc1nnc2c3ccccc3n(Cc3nnc(S)o3)c2n1 | 256 (≈ 718 µM) | 256 (≈ 718 µM) | 256 (≈ 718 µM) | 256 (≈ 718 µM) | 256 (≈ 718 µM) | 256 (≈ 718 µM) | 256 (≈ 718 µM) | 256 (≈ 718 µM) | 256 (≈ 718 µM) | 256 (≈ 718 µM) | 256 (≈ 718 µM) |  |  |  | 
7 | CCOc1cccc2c1c1ccccc1n2Cc1nnc(S)o1 | 1 (≈ 3.07 µM) | 1 (≈ 3.07 µM) | 64 (≈ 197 µM) | 16 (≈ 49.2 µM) | 0.5 (≈ 1.54 µM) | 32 (≈ 98.3 µM) | 0.5 (≈ 1.54 µM) | 0.25 (≈ 0.768 µM) | 256 (≈ 787 µM) | 256 (≈ 787 µM) | 0.25 (≈ 0.768 µM) |  | Active | < 3 | Active
8 | Sc1nnc(COc2cccc3[nH]c4ccccc4c23)o1 | 2 (≈ 6.73 µM) | 2 (≈ 6.73 µM) | 64 (≈ 215 µM) | 64 (≈ 215 µM) | 128 (≈ 430 µM) | 4 (≈ 13.5 µM) | 1 (≈ 3.36 µM) | 4 (≈ 13.5 µM) | 256 (≈ 861 µM) | 64 (≈ 215 µM) | 64 (≈ 215 µM) |  |  |  | 
9 | Sc1nnc(COc2cccc3c2c2ccccc2n3Cc2nnc(S)o2)o1 | 32 (≈ 77.8 µM) | 32 (≈ 77.8 µM) | 32 (≈ 77.8 µM) | 64 (≈ 156 µM) | 64 (≈ 156 µM) | 64 (≈ 156 µM) | 32 (≈ 77.8 µM) | 32 (≈ 77.8 µM) | 128 (≈ 311 µM) | 128 (≈ 311 µM) | 128 (≈ 311 µM) |  |  |  | 
10 | Fc1ccc(COc2cccc3c2c2ccccc2n3Cc2nnc(S)o2)cc1 | 1 (≈ 2.47 µM) | 2 (≈ 4.93 µM) | 256 (≈ 631 µM) | 2 (≈ 4.93 µM) | 8 (≈ 19.7 µM) | 4 (≈ 9.87 µM) | 0.25 (≈ 0.617 µM) | 2 (≈ 4.93 µM) | 256 (≈ 631 µM) | 8 (≈ 19.7 µM) | 4 (≈ 9.87 µM) |  |  |  | 
11 | Sc1nnc(Cn2c3ccccc3c3c(OCc4ccc(Cl)cc4)cccc32)o1 | 256 (≈ 607 µM) | 256 (≈ 607 µM) | 256 (≈ 607 µM) | 256 (≈ 607 µM) | 256 (≈ 607 µM) | 256 (≈ 607 µM) | 256 (≈ 607 µM) | 4 (≈ 9.48 µM) | 256 (≈ 607 µM) | 256 (≈ 607 µM) | 256 (≈ 607 µM) |  |  |  | 
12 | CCN(CC)CCOc1cccc2c1c1ccccc1n2Cc1nnc(S)o1 | 128 (≈ 323 µM) | 4 (≈ 10.1 µM) | 256 (≈ 646 µM) | 256 (≈ 646 µM) | 256 (≈ 646 µM) | 256 (≈ 646 µM) | 256 (≈ 646 µM) | 256 (≈ 646 µM) | 256 (≈ 646 µM) | 2 (≈ 5.04 µM) | 256 (≈ 646 µM) |  |  |  | 
